In patent US9617602B2, “Methods and compositions for determining resistance to androgen receptor therapy” (Aragon Pharmaceuticals, Inc., priority 2012, dated 2017):

Columns and labels:
Type in all cases: cell-based, human
[1] = test system: Class 1 ARN-509- and MDV3100-resistant cell lines; experiment: Proliferation assay (CellTiter-Glo), agonist and antagonist mode; settings: for Ligand independent growth of Class 1 cells in presence of compound: absence of added androgens
[2] = test system: Class 2 MDV3100- and ARN-509-resistant cell lines; experiment: as above; settings: for Antagonism of androgen dependent growth of Class 2 resistant lines: antagonist mode
LNCaP cells [3] = experiment: Transcriptional reporter assay (probasin-luciferase); settings: for Agonist Transcriptional Reporter Assay (% Max Activity): [Antagonists] = 50 μM; for Antagonist Transcriptional Reporter Assay (% Max Activity): [Antagonists] = 50 μM in presence of R1881
Method: (§1) With the exception of the LNCaP/AR(cs)-Luc cells that contain an integrated androgen responsive reporter, cells were transiently transfected using Lipofectin® (Life Technologies) according to the manufacturer's protocol. […] Following transfection, the cells were incubated for 4 hours.
(§2) Following 48 hour incubation the medium was removed and the cells were lysed in 40 μL of lysis buffer (25 mM Tris Phosphate, 2 mM CDTA, 10% Glycerol, 0.5% Triton X-100, 2 mM DTT).

LNCaP/AR(cs) cells = experiment: as above; settings: for Agonist Transcriptional Reporter Assay (% Max Activity): [Antagonists] = 50 μM; for Antagonist Transcriptional Reporter Assay (% Max Activity): [Antagonists] = 50 μM in presence of R1881
Method: as §1, §2

[4] = test system: Class 1 resistant cell lines; experiment: as above; settings: for Agonist Transcriptional Reporter Assay (% Max Activity) / Antagonist Transcriptional Reporter Assay (% Max Activity): Class 1; for Agonist Transcriptional Reporter Assay (% Max Activity): [Antagonists] = 50 μM; for Antagonist Transcriptional Reporter Assay (% Max Activity): [Antagonists] = 50 μM in presence of R1881; for Antagonist activity in probasin-luciferase reporter, Class 1 resistant cells: decrease in luciferase activity relative to no treatment controls
Method: as §1, §2

[5] = test system: Class 2 resistant cell lines; experiment: as above; settings: for Agonist Transcriptional Reporter Assay (% Max Activity) / Antagonist Transcriptional Reporter Assay (% Max Activity): Class 2; for Agonist Transcriptional Reporter Assay (% Max Activity): [Antagonists] = 50 μM; for Antagonist Transcriptional Reporter Assay (% Max Activity): [Antagonists] = 50 μM in presence of R1881
Method: as §1, §2

LNCaP cells [6] = experiment: Endogenous gene transcriptional assay (real-time PCR of androgen responsive genes); settings: 1 nM R1881 or 30 μM compound, vehicle=1.00
Method: (§3) Total RNA was isolated using the Aurum™ total RNA isolation kit (BIO-RAD, Hercules, Calif.). RNA (1 μg) was reverse transcribed using the iScript cDNA synthesis kit (BIO-RAD, Hercules, Calif.) to produce cDNA. Real-time PCR was performed using the Applied Biosystems 7900HT instrument and SYBR Green PCR Master Mix (Applied Biosystems, Foster City, Calif.). PCR reactions were performed in 6 μL according to the manufacturer's protocol and a thermocycle protocol of 95° C. for 10 minutes followed by 40 cycles of 95° C. for 15 seconds and 58° C. for 1 minute. Androgen responsive gene (PSA, SLUG, TMPRSS2, STEAP4, FKBP5, ORM1, NOV, FASN, NKX3.1, AMIGO2, BDNF, CAMK2N1, HPGD, NCAPD3, PLD1) expression was normalized to GAPDH expression and expressed relative to vehicle treatment of the parental cell line.
(§4) Gene expression was normalized to GAPDH as described above.

LNCaP ARN-509r1 cells = experiment: as above; settings: 1 nM R1881 or 30 μM compound, vehicle=1.00
Method: as §3, §4

LNCaP ARN-509r2 cells = experiment: as above; settings: 1 nM R1881 or 30 μM compound, vehicle=1.00
Method: as §3, §4

LNCaP/AR-Luc cells = experiment: as above; settings: 1 nM R1881 or 30 μM compound, vehicle=1.00
Method: as §3, §4

[7] = Homo sapiens, 168 h, read-out: Antagonist Proliferation Assay (% Viability)

Compound: CNC(=O)c1ccc(N2C(=S)N(c3ccc(C#N)c(C(F)(F)F)c3)C(=O)C2(C)C)cc1F [Enzalutamide, enzalutamide]
- Effect on growth inhibitory activity of R1881 in Class 1 cells [1]: antagonized
- Ligand independent growth of Class 1 cells in presence of compound [1]: unaltered
- Antagonism of androgen dependent growth of Class 2 resistant lines [2]: only partially antagonized
- Agonist Transcriptional Reporter Assay (% Max Activity) (LNCaP cells [3]): + (‘+’ = <5)
- Antagonist Transcriptional Reporter Assay (% Max Activity) (LNCaP cells [3]): + (‘+’ = <5)
- Agonist Transcriptional Reporter Assay (% Max Activity) (LNCaP/AR(cs) cells): + (‘+’ = <5)
- Antagonist Transcriptional Reporter Assay (% Max Activity) (LNCaP/AR(cs) cells): + (‘+’ = <5)
- Agonist Transcriptional Reporter Assay (% Max Activity) [4]: + (‘+’ = <5)
- Antagonist Transcriptional Reporter Assay (% Max Activity) [4]: + (‘+’ = <5)
- Antagonist activity in probasin-luciferase reporter, Class 1 resistant cells [4]: effective antagonists
- Agonist activity in probasin-luciferase reporter assay, Class 2 resistant cells [5]: weak partial agonist
- Agonist Transcriptional Reporter Assay (% Max Activity) [5]: ++ (‘++’ = >5)
- Antagonist Transcriptional Reporter Assay (% Max Activity) [5]: ++ (‘++’ = >5)
- AMIGO2 gene expression (LNCaP cells [6]): 1.20
- BDNF gene expression (LNCaP cells [6]): 0.85
- CAM2KN1 gene expression (LNCaP cells [6]): 1.39
- FASN gene expression (LNCaP cells [6]): 1.24
- HPGD gene expression (LNCaP cells [6]): 1.78
- NCAPD3 gene expression (LNCaP cells [6]): 1.20
- NKX3.1 gene expression (LNCaP cells [6]): 1.66
- NOV gene expression (LNCaP cells [6]): 2.57
- PLD1 gene expression (LNCaP cells [6]): 0.70
- PSA gene expression (LNCaP cells [6]): 1.69
- SLUG gene expression (LNCaP cells [6]): 2.35
- TMPRSS2 gene expression (LNCaP cells [6]): 1.68
- AMIGO2 gene expression (LNCaP ARN-509r1 cells): 0.99
- CAM2KN1 gene expression (LNCaP ARN-509r1 cells): 0.59
- FASN gene expression (LNCaP ARN-509r1 cells): 1.53
- FKBP5 gene expression (LNCaP ARN-509r1 cells): 9.45
- HPGD gene expression (LNCaP ARN-509r1 cells): 10.20
- NCAPD3 gene expression (LNCaP ARN-509r1 cells): 3.12
- NOV gene expression (LNCaP ARN-509r1 cells): 1.39
- ORM1 gene expression (LNCaP ARN-509r1 cells): 205.07
- PLD1 gene expression (LNCaP ARN-509r1 cells): 0.24
- PSA gene expression (LNCaP ARN-509r1 cells): 57.68
- SLUG gene expression (LNCaP ARN-509r1 cells): 42.52
- STEAP4 gene expression (LNCaP ARN-509r1 cells): 32.22
- TMPRSS2 gene expression (LNCaP ARN-509r1 cells): 23.75
- AMIGO2 gene expression (LNCaP ARN-509r2 cells): 0.63
- BDNF gene expression (LNCaP ARN-509r2 cells): 0.77
- CAM2KN1 gene expression (LNCaP ARN-509r2 cells): 0.38
- FASN gene expression (LNCaP ARN-509r2 cells): 0.93
- FKBP5 gene expression (LNCaP ARN-509r2 cells): 3.41
- HPGD gene expression (LNCaP ARN-509r2 cells): 4.56
- NCAPD3 gene expression (LNCaP ARN-509r2 cells): 1.35
- NKX3.1 gene expression (LNCaP ARN-509r2 cells): 6.28
- NOV gene expression (LNCaP ARN-509r2 cells): 0.71
- ORM1 gene expression (LNCaP ARN-509r2 cells): 23.75
- PLD1 gene expression (LNCaP ARN-509r2 cells): 0.29
- PSA gene expression (LNCaP ARN-509r2 cells): 2.48
- SLUG gene expression (LNCaP ARN-509r2 cells): 9.58
- TMPRSS2 gene expression (LNCaP ARN-509r2 cells): 4.86
- AMIGO2 gene expression (LNCaP/AR-Luc cells): 1.44
- BDNF gene expression (LNCaP/AR-Luc cells): 1.08
- CAM2KN1 gene expression (LNCaP/AR-Luc cells): 1.51
- FASN gene expression (LNCaP/AR-Luc cells): 1.40
- FKBP5 gene expression (LNCaP/AR-Luc cells): 1.46
- HPGD gene expression (LNCaP/AR-Luc cells): 2.51
- NCAPD3 gene expression (LNCaP/AR-Luc cells): 1.33
- NKX3.1 gene expression (LNCaP/AR-Luc cells): 1.68
- ORM1 gene expression (LNCaP/AR-Luc cells): 1.39
- PLD1 gene expression (LNCaP/AR-Luc cells): 1.33
- PSA gene expression (LNCaP/AR-Luc cells): 0.44
- SLUG gene expression (LNCaP/AR-Luc cells): 2.73
- STEAP4 gene expression (LNCaP/AR-Luc cells): 1.23
- TMPRSS2 gene expression (LNCaP/AR-Luc cells): 1.35

Compound: CNC(=O)c1ccc(N2C(=S)N(c3cnc(C#N)c(C(F)(F)F)c3)C(=O)C23CCC3)cc1F [ARN-509]
- Effect on growth inhibitory activity of R1881 in Class 1 cells [1]: antagonized
- viability at 0.0001 µM [1, 7]: > 30%
- Ligand independent growth of Class 1 cells in presence of compound [1]: unaltered
- Agonist Proliferation Assay (% Viability) ([2]; Class 2, [Antagonists] = 10 μM, 7 days): ++ (‘++’ = >30)
- viability at 0.0001 µM [2, 7]: > 30%
- Stimulation of proliferation in Class 2 cell lines ([2]; agonist mode): can stimulate proliferation
- Antagonism of androgen dependent growth of Class 2 resistant lines [2]: only partially antagonized
- Agonist Transcriptional Reporter Assay (% Max Activity) (LNCaP cells [3]): + (‘+’ = <5)
- Antagonist Transcriptional Reporter Assay (% Max Activity) (LNCaP cells [3]): + (‘+’ = <5)
- Agonist Transcriptional Reporter Assay (% Max Activity) (LNCaP/AR(cs) cells): + (‘+’ = <5)
- Antagonist Transcriptional Reporter Assay (% Max Activity) (LNCaP/AR(cs) cells): + (‘+’ = <5)
- Agonist Transcriptional Reporter Assay (% Max Activity) [4]: + (‘+’ = <5)
- Antagonist Transcriptional Reporter Assay (% Max Activity) [4]: ++ (‘++’ = >5)
- Antagonist activity in probasin-luciferase reporter, Class 1 resistant cells [4]: effective antagonists
- Agonist activity in probasin-luciferase reporter assay, Class 2 resistant cells [5]: no agonist activity
- Agonist Transcriptional Reporter Assay (% Max Activity) [5]: + (‘+’ = <5)
- Antagonist Transcriptional Reporter Assay (% Max Activity) [5]: + (‘+’ = <5)
- AMIGO2 gene expression (LNCaP cells [6]): 1.12
- BDNF gene expression (LNCaP cells [6]): 1.09
- CAM2KN1 gene expression (LNCaP cells [6]): 1.17
- FASN gene expression (LNCaP cells [6]): 1.34
- FKBP5 gene expression (LNCaP cells [6]): 0.99
- HPGD gene expression (LNCaP cells [6]): 1.48
- NKX3.1 gene expression (LNCaP cells [6]): 0.90
- NOV gene expression (LNCaP cells [6]): 1.73
- ORM1 gene expression (LNCaP cells [6]): 0.71
- PLD1 gene expression (LNCaP cells [6]): 1.09
- PSA gene expression (LNCaP cells [6]): 0.66
- SLUG gene expression (LNCaP cells [6]): 1.27
- STEAP4 gene expression (LNCaP cells [6]): 0.78
- TMPRSS2 gene expression (LNCaP cells [6]): 0.77
- AMIGO2 gene expression (LNCaP ARN-509r1 cells): 0.62
- BDNF gene expression (LNCaP ARN-509r1 cells): 0.90
- CAM2KN1 gene expression (LNCaP ARN-509r1 cells): 0.37
- FASN gene expression (LNCaP ARN-509r1 cells): 1.04
- FKBP5 gene expression (LNCaP ARN-509r1 cells): 2.58
- HPGD gene expression (LNCaP ARN-509r1 cells): 2.36
- NCAPD3 gene expression (LNCaP ARN-509r1 cells): 1.29
- NKX3.1 gene expression (LNCaP ARN-509r1 cells): 6.54
- NOV gene expression (LNCaP ARN-509r1 cells): 1.40
- ORM1 gene expression (LNCaP ARN-509r1 cells): 15.89
- PLD1 gene expression (LNCaP ARN-509r1 cells): 0.33
- PSA gene expression (LNCaP ARN-509r1 cells): 32.67
- SLUG gene expression (LNCaP ARN-509r1 cells): 4.66
- STEAP4 gene expression (LNCaP ARN-509r1 cells): 3.03
- TMPRSS2 gene expression (LNCaP ARN-509r1 cells): 10.20
- AMIGO2 gene expression (LNCaP ARN-509r2 cells): 0.67
- BDNF gene expression (LNCaP ARN-509r2 cells): 1.04
- CAM2KN1 gene expression (LNCaP ARN-509r2 cells): 0.46
- FASN gene expression (LNCaP ARN-509r2 cells): 0.98
- FKBP5 gene expression (LNCaP ARN-509r2 cells): 8.00
- HPGD gene expression (LNCaP ARN-509r2 cells): 1.49
- NKX3.1 gene expression (LNCaP ARN-509r2 cells): 3.73
- NOV gene expression (LNCaP ARN-509r2 cells): 1.39
- ORM1 gene expression (LNCaP ARN-509r2 cells): 3.94
- PLD1 gene expression (LNCaP ARN-509r2 cells): 0.81
- PSA gene expression (LNCaP ARN-509r2 cells): 1.91
- SLUG gene expression (LNCaP ARN-509r2 cells): 1.31
- STEAP4 gene expression (LNCaP ARN-509r2 cells): 1.45
- TMPRSS2 gene expression (LNCaP ARN-509r2 cells): 3.07
- AMIGO2 gene expression (LNCaP/AR-Luc cells): 1.13
- BDNF gene expression (LNCaP/AR-Luc cells): 1.17
- CAM2KN1 gene expression (LNCaP/AR-Luc cells): 1.13
- FASN gene expression (LNCaP/AR-Luc cells): 1.08
- FKBP5 gene expression (LNCaP/AR-Luc cells): 1.16
- HPGD gene expression (LNCaP/AR-Luc cells): 1.88
- NKX3.1 gene expression (LNCaP/AR-Luc cells): 1.14
- NOV gene expression (LNCaP/AR-Luc cells): 2.55
- ORM1 gene expression (LNCaP/AR-Luc cells): 1.27
- PLD1 gene expression (LNCaP/AR-Luc cells): 1.45
- PSA gene expression (LNCaP/AR-Luc cells): 0.60
- SLUG gene expression (LNCaP/AR-Luc cells): 1.13
- STEAP4 gene expression (LNCaP/AR-Luc cells): 0.88
- TMPRSS2 gene expression (LNCaP/AR-Luc cells): 0.74
